Test results: US10987293B2, “Composition for skin external application” (DR. RAYMOND LABORATORIES, INC., priority 2018, dated 2021)

Tested on: fertilized eggs of the zebrafish
Assay: Developmental toxicity in zebrafish
Assay type: in vivo
Details: 1, 10, 100 μg/mL; 4 hours exposure; judged 24 and 48 hours after fertilization
Experimental: 4. Confirmation of Presence of Developmental Toxicity in Zebrafish
In this case, a 1% DMSO aqueous solution that was a stock solution was used as the control material.
Specifically, each of the samples was prepared at concentrations of 1, 10, and 100 μg/mL using the stock solution. After each of the samples was adjusted to these concentrations, fertilized eggs of the zebrafish were exposed to each of the samples for 4 hours. 24 hours after fertilization (20 hours after the exposure to each of the samples) and 48 hours after fertilization (44 hours after the exposure to each of the samples), it was judged whether or not the samples were toxic overall. In this case, the toxicity was evaluated based on the indicators divided into eight categories (Normal Development; Death; Coagulated Egg; Necrotic Tissue; Eye Development Alteration; Edema (Pericardial Edema); Tail Formation; and General Retardation).
That is, it was confirmed that the serinol-based compound according to the present invention had no developmental toxicity.

Compound: CCCCCCCCCCCCCCCC(=O)NC(CO)CO [palmitoyl serinol]
- developmental toxicity (development of fertilized eggs): developed normally
